# Test results published in patent US8293680B2, “Fungicidal mixtures of triticonazole and difenoconazole” (BASF SE, priority 2007, dated 2012).
# Where two headings read alike, the source gives them in different places.
# Assays:
# Botrytis cinerea = assay: Activity against the grey mold Botrytis cinerea in the microtiterplate test (Botrci); type: cell-based; settings: solo, MTP, 405 nm, 7 days after inoculation
# Pyricularia oryzae = type: cell-based; settings: Pyrior, solo, MTP, 405 nm, 7 days after inoculation
Structure (SMILES),Observed efficacy (Botrytis cinerea; 0.25 ppm),Observed efficacy (Pyricularia oryzae; 1 ppm),Observed efficacy (Botrytis cinerea; 1 ppm),Observed efficacy (Pyricularia oryzae; 4 ppm)
"CC1COC(Cn2cncn2)(c2ccc(Oc3ccc(Cl)cc3)cc2Cl)O1 (stereo not shown) [Difenoconazol, 1-[2-[4-(4-chlorophenoxy)-2-chlorophenyl]-4-methyl-1,3-dioxolan-2-ylmethyl]-1H-1,2,4-triazole]",30%,15%,,
"CC1(C)CC/C(=C\c2ccc(Cl)cc2)C1(O)Cn1cncn1 (racemic) [Triticonazol, (±) E-5-(4-chlorobenzylidene)-2,2-dimethyl-1-(1H-1,2,4-triazol-1-ylmethyl)cyclopentanol]",,,55%,35%
